Reference: patent publication US7211601B2, “Pharmaceutically active pyrrolidine derivatives” (Applied Research Systems Ars Holding N.V., priority 2000, dated 2007)

How the values were obtained:
hOT-R [1] = biological target: T1, hOT-R (Homo sapiens, UniProt P30559); assay: In vitro binding assay (SPA), competition with [125I]-OVTA on membranes from HEK293EBNA cells expressing the hOT receptor; design: expressed in transfected cells; host or cells: HEK293EBNA; details: 0.2 nM [125I]-OVTA, read-out: Binding affinity human OT-R IC50
T1 sequence (P30559 1-389): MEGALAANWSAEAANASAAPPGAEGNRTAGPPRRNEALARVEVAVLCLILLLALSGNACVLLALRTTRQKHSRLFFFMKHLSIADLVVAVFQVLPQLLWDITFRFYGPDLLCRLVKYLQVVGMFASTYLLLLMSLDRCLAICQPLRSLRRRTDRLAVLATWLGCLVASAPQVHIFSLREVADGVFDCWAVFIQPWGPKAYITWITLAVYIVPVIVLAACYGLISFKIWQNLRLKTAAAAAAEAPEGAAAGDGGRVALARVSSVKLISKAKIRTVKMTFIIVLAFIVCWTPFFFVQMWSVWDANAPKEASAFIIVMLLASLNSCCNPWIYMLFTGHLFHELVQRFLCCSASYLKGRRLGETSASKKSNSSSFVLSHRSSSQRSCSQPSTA
Protocol: a) In Vitro Binding Assay (SPA)
Membranes from HEK293EBNA cells expressing the hOT receptor were resuspended in buffer containing 50 mM Tris-HCl, pH 7.4,5 mM MgCl2 and 0.1% BSA (w/v). The membranes (2–4 μg) were mixed with 0.1 mg wheat-germ aglutinin (WGA) SPA bead (type A) and increasing concentrations of [^125I]-OVTA (for saturation binding experiments) or 0.2 nM [^125I]-OVTA (for competition binding experiments). Non specific binding was deter-mined in the presence of 1 μM Oxytocin. The total assay volume was 100 μl. The plates were incubated at room temperature for 30 min and counted on a Mibrobeta plate counter. The competition binding data were analysed using the iterative, nonlinear, curve-fitting program, Prism.
The binding affinities to the oxytocin receptor of the pyrrolidine derivatives claimed in the formula I were assessed using the above described in vitro biological assay. The values refer to the binding capacity of the example compounds according to formula I to the Oxytocin receptor. From the values shown in Table 1 it can be derived that said test compounds according to formula I do show a significant binding to the Oxytocin receptor.

hOT-R [2] = biological target: T1, hOT-R; assay: Functional assay No. 1: inhibition of oxytocin-induced Ca2+-mobilization by FLIPR; assay type: cell-based; design: expressed in transfected cells; host or cells: HEK cells (CHO cells also mentioned); details: oxytocin-induced intracellular Ca2+ mobilization, read-out: Inhibition of Ca^2+ mobilization, hOT-R IC50
Protocol: c) Functional Assay No. 1: Inhibition of Ca^2+-Mobilization by FLIPR
Preparing the plates: FLIPR-plates were pre-coated with PLL 10 μg/ml+0.1% gelatine for 30 min up to 2 days at 37° C. (for HEK-cells). The cells were plated out into 96-well plates (60000 cells/well).
Labelling with fluo-4: 50 μg fluo-4 were dissolved in 20 μl pluronic acid (20% in DMSO). The dissolved fluo-4 was then diluted in 10 ml DMEM-F12 medium without FCS. The medium was removed from the plates, followed by one wash with DMEM-F12 medium. Now, 100 μl of the DMEM-F12 medium containing fluo-4 were added and the cells incubated for 1–1.5 h (CHO-cells), and 1.5–2 h (HEK-cells).
Buffer: 145 mM NaCl, 5 mM KCl, 1 mM MgCl2, 10 mM Hepes, 10 mM Glucose, EGTA. Adjust to pH 7.4.
Preparation of agonists and antagonists: A minimum of 80 μl/well of agonists and anta-gonists (5×) in the above buffer (1×) were prepared (96-well plates).
The activities of the pyrrolidine derivatives according to formula I were assessed using the above described in vitro biological assay. The values refer to the capacity of the example compounds according to formula I to effectively antagonize oxytocin-induced intracellular Ca^2+-mobilization mediated by the Oxytocin receptor.

[3] = tested on: oxytocin-induced uterine contractions in the rat; assay: In vivo model for inhibition of uterine contractions (oxytocin-induced, anaesthetised DES-treated rats); details: intravenous, PEG400/saline 50:50, 5 ml/kg infusion
Protocol: e) In Vivo Model for Inhibition of Uterine Contractions
Non-pregnant Charles River CD(SD) BR female rats (9–10 weeks old, 200–250 g) were treated at 18 and 24 hours before the experiment with 250 μg/kg, i.p. diethylstilbestrol (DES). For the assay, the animal was anaesthetised by urethane (1.75 g/kg, i.p.) and placed on an homeothermic operating table. The trachea was isolated and cannulated with a suitable polyethylene (PE) tubing. A midline incision at the hypogastrium level was made and one uterine horn exposed, its cephalic end cannulated with a PE240 tubing and, after filling the internal cavity with 0.2 ml of sterile physiological saline, connected to a “Gemini” amplifying/recording system via a P23ID Gould Statham pressure transducer. For the i.v. route of administration of the test compounds, one jugular vein was isolated and cannulated with a PE60 tubing connected to a butterfly needle to allow the administration by a dispensing syringe. In the case of intraduodenal administration of the test compounds, the duodenum was isolated and similarly cannulated through a small incision in its wall. One carotid artery was also isolated and cannulated with PE60 catheter and connected to a suitable syringe for blood sample collection (see below). After a stabilization period, the same dose of oxytocin was repeatedly injected intravenously at 30-min intervals. […] Further injections of the same dose of oxytocin were then made for a suitable time after treatment to assess inhibitory effects of the compounds under study. The contractile response of the uterus to oxytocin was quantified by measuring the intrauterine pressure and the number of contractions. The effect of the reference and test compounds were evaluated by comparing pre- and post-treatment pressure values. In addition, at 2, 30, 90 and 210 minutes after test compound administration, a 0.5-ml blood sample was withdrawn from the cannulated carotid artery of each experimental animal. Plasma was obtained by standard laboratory procedure and the resulting samples were stored at −20° C.
The activities of the pyrrolidine derivatives claimed in the formula I were assessed using the above described in vivo biological assay. The values refer to the capacity of the example compound according to formula I to effectively antagonize oxytocin-induced -uterine contractions in the rat.

SMILES | IC50 (hOT-R [1]) | IC50 (hOT-R [2]) | other results
CON=C1C[C@@H](C(=O)N[C@@H]2CCCC[C@H]2CO)N(C(=O)c2ccc(-c3ccccc3OC)cc2)C1 [Example 384, (2S,4EZ)-N-[(1R,2R)-2-(hydroxymethyl)cyclohexyl]-1-[(2′-methoxy[1,1′-biphenyl]-4-yl)carbonyl]-4-(methoxyimino)-2-pyrrolidinecarboxamide] | 550 nM | – | –
CO/N=C1/C[C@@H](C(=O)NCCO)N(C(=O)c2ccc(-c3ccccc3)cc2)C1 [(2S,4Z)-1-([1,1′biphenyl]-4-ylcarbonyl)-N-(2-hydroxyethyl)-4-(methoxyimino)-2-pyrrolidinecarboxamide] | – | 650 nM | –
CO/N=C1/C[C@@H](c2nc3ccccc3[nH]2)N(C(=O)c2ccc(-c3ccccc3)cc2)C1 [(3Z,5S)-5-(1H-benzimidazol-2-yl)-1-([1,1′-biphenyl]-4-ylcarbonyl)-3-pyrrolidinone O-methyloxime] | 630 nM | 400 nM | –
CON=C1C[C@@H](C(=O)NCC[C@@H](O)c2ccccc2)N(C(=O)c2ccc(-c3ccccc3C)cc2)C1 [Example 433, (2S,4EZ)-N-[(3R)-3-hydroxy-3-phenylpropyl]-4-(methoxyimino)-1-[(2′-methyl[1,1′-biphenyl]-4-yl)carbonyl]-2-pyrrolidinecarboxamide] | – | 320 nM | –
CON=C1C[C@@H](C(=O)NC[C@@H](O)c2ccccc2)N(C(=O)c2cccc(Oc3ccccc3)c2)C1 (racemic) [Example 278] | 2300 nM | – | –

Further lines, with some results ahead:

IC50 (hOT-R [1]) | IC50 (hOT-R [2]) | SMILES | other results
130 nM | 70 nM | CO/N=C1\C[C@@H](C(=O)NC[C@@H](O)c2ccccc2)N(C(=O)c2ccc(-c3ccccc3C)cc2)C1 [drawing 17, (2S,4E)-N-[(2S)-2-hydroxy-2-phenylethyl]-4-(methoxyimino)-1-[(2′-methyl[1,1′-biphenyl]-4-yl)carbonyl]-2-pyrrolidinecarboxamide] | –
170 nM | – | CON=C1C[C@@H](C(=O)NC[C@@H](O)c2ccccc2)N(C(=O)c2ccc(-c3ccccc3Cl)cc2)C1 [Example 438, (2S,4EZ)-N-[(2S)-2-hydroxy-2-phenylethyl]-4-(methoxyimino)-1-{[2′-chloro[1,1′-biphenyl]-4-yl]carbonyl}-2-pyrrolidinecarboxamide] | –
350 nM | – | O=C(NCC(O)c1ccccc1)[C@@H]1C/C(=C/Cl)CN1C(=O)c1ccc(-c2ccccc2)cc1 (mixture of isomers) [(2S,4Z)-1-([1,1′-biphenyl]-4-ylcarbonyl)-4-(chloromethylene)-N-[(2RS)-2-hydroxy-2-phenylethyl]-2-pyrrolidinecarboxamide] | –
540 nM | – | CON=C1C[C@@H](C(=O)NCCC(N)=O)N(C(=O)c2ccc(-c3ccccc3C)cc2C)C1 [Example 410, (2S,4EZ)-N-(3-amino-3-oxopropyl)-1-[(2′,3-dimethyl[1,1′-biphenyl]-4-yl)carbonyl]-4-(methoxyimino)-2-prrolidinecarboxamide] | –
370 nM | – | CON=C1C[C@@H](C(=O)NCCCO)N(C(=O)c2ccc(-c3ccccc3C)cc2)C1 [Example 377, (2S,4EZ)-N-(3-hydroxypropyl)-4-(methoxyimino)-1-[(2′-methyl[1,1′-biphenyl]-4-yl)carbonyl]-2-pyrrolidinecarboxamide] | –
70 nM | 30 nM | CO/N=C1/C[C@@H](C(=O)NC[C@@H](O)c2ccccc2)N(C(=O)c2ccc(-c3ccccc3C)cc2)C1 [drawing 18, (2S,4Z)-N-[(2S)-2-hydroxy-2-phenylethyl]-4-(methoxyimino)-1-[(2′-methyl[1,1′-biphenyl]-4-yl)carbonyl]-2-pyrrolidinecarboxamide] | % Reduction of Utenne Contraction ([3]; dose 0.3 mg/kg): −23.8 ± 4.1%; % Reduction of Utenne Contraction ([3]; dose 1 mg/kg): −27.6 ± 4.6%; % Reduction of Utenne Contraction ([3]; dose 3 mg/kg): −50.4 ± 5.8%; % Reduction of Utenne Contraction ([3]; dose 10 mg/kg): −65.6 ± 6.4%; % Reduction of Utenne Contraction ([3]; dose 30 mg/kg): −76.5 ± 4.24%
300 nM | – | CON=C1C[C@@H](C(=O)N2CCC(O)CC2)N(C(=O)c2ccc(-c3ccccc3C)cc2)C1 [Example 372, (3EZ,5S)-5-[(4-hydroxy-1-piperidinyl)carbonyl]-1-[(2′-methyl[1,1′-biphenyl]-4-yl)carbonyl]-3-pyrrolidinone O-methyloxime] | –
